# Values of other authors as cited in patent US20030228369A1, “Process for conversion of high viscosity fluids and compositions thereof” (priority 2002, published 2003).
# Conditions: pH about 1.2
smiles,measurement,value
CC(C)=CCC1=C(O)[C@](O)(CC=C(C)C)C(=O)C(C(=O)CC(C)C)=C1O [humulon],solubility at pH of the stomach / gastric fluid,not soluble
